Assay results published in US10787448B2, “Indolizino [3,2-C] quinoline-based fluorescent probe” (SEOUL NATIONAL UNIVERSITY R & DB FOUNDATION, priority 2015, dated 2020).
Values joined by “and” are separate entries in the source; they are usually repeats but may differ in a detail not shown here. Equal values may be shown once. Where a name gives a salt, the structure may show the parent alone. Values belong to the compound of their own block, whether it stands above or below them.

Test: Analysis of optical characteristics (absorption, fluorescence emission, quantum yield) in solvents
Format: physicochemical
Conditions: for peak emission (λmax): aqueous solution (H2O); for Relative fluorescence Emission Intensitynorm: normalized fluorescence intensity; for Relative fluorescence Emission Intensitynorm / Fluorescence Emission Intensity / Peak emission wavelength λmax em(nm): H2O at 2 μM; for Peak emission wavelength λmax em(nm): excited at the longest absorption maxima
Method: Fluorescence emission spectra were obtained at 20° C. using a JASCO FP-6500 spectrofluorometer, a 10 mM stock solution prepared by dissolving an indolizino[3,2-c]quinoline compound in DMSO was diluted in a solvent. […] Absorption spectra were recorded at room temperature using a Perkin Elmer Lamda 20 UV/VIS spectrometer. […]
Further, the compounds (excluding Entry #51-57, etc.) of Formula 1 were subjected to spectrum analyses in various solvents, and the results are shown in Tables 6 and 7, and FIGS. 5C and 5D.

SMILES: c1cc(-c2nc3ccccc3c3cc4ccccn4c23)nc(-c2nc3ccccc3c3cc4ccccn4c23)c1 [IQ 5-D, 2,6-bis(indolizino[3,2-c]quinolin-6-yl)pyridine]
- λex(nm) (Table 6): 402 nm and 422 nm
- peak emission (λmax): 543 nm

SMILES: COc1ccc(-c2c3c(cc4ccccn43)c3ccccc3[n+]2C)cc1 [IQ 6-S1-Me, 6-(4-methoxyphenyl)-5-methylindolizino[3,2-c]quinolin-5-ium methyl sulfate]
- solvent-dependent (environment-sensitive) tendency of the emission: hardly showed an environment-sensitive optical characteristic
- λex(nm) (Table 6): 458 nm

SMILES: COc1ccc(-c2c3c(cc4ccccn43)c3ccccc3[n+]2CCCl)cc1 [IQ 6-S2-Cl, 5-(2-chloroethyl)-6-(4-methoxyphenyl)indolizino[3,2-c]quinolin-5-ium trifluoromethanesulfonate]
- solvent-dependent (environment-sensitive) tendency of the emission: hardly showed an environment-sensitive optical characteristic
- λex(nm) (Table 6): 464 nm

SMILES: CCCCn1cc(-c2c3c4ccccc4nc(-c4ccc(OC)cc4)c3n3ccccc23)nn1 [IQ 6-T, 12-(1-butyl-1H-1,2,3-triazol-4-yl)-6-(4-methoxyphenyl)indolizino[3,2-c]quinoline]
- λex(nm) (Table 6): 403 nm

SMILES: COc1ccc(-c2nc3ccccc3c3c(-c4cn(CCOCCOCCOCCNC(=O)CCCCCC5[C@H]6NC(=O)N[C@H]6C[S+]5[O-])nn4)c4ccccn4c23)cc1 (stereo partly drawn) [IQ 6-T-B, N-(2-(2-(2-(2-(4-(6-(4-methoxyphenyl)indolizino[3,2-c]quinolin-12-yl)-1H-1,2,3-triazol-1-yl)ethoxy)ethoxy)ethoxy)ethyl)-6-((3aS,6aR)-5-oxido-2-oxohexahydro-1H-thieno[3,4-d]imidazol-4-yl)hexanamide]
- λex(nm) (Table 6): 437 nm

SMILES: COC(=O)c1c2c3ccccc3nc(-c3ccc[nH]3)c2n2ccccc12 [IQ 21, Methyl 6-(1H-pyrrol-2-yl)indolizino[3,2-c]quinoline-12-carboxylate]
- solvent-dependent (environment-sensitive) tendency of the emission: blue-shift
- peak emission (λmax): 433 nm

SMILES: CCOC(=O)c1c2c3ccccc3nc(-c3ccc([N+](=O)[O-])cc3)c2n2ccccc12 [IQ 26, ethyl 6-(4-nitrophenyl)indolizino[3,2-c]quinoline-12-carboxylate]
- fluorescence (intensity, in words): did not induce fluorescence

SMILES: CCOC(=O)c1c2c3ccccc3nc(-c3cccc(F)c3)c2n2ccccc12 [IQ 28, ethyl 6-(3-fluorophenyl)indolizino[3,2-c]quinoline-12-carboxylate]
- solvent-dependent (environment-sensitive) tendency of the emission: solvatochromic effect

SMILES: CCOC(=O)c1c2c3ccccc3nc(-c3ccc(OC)c(OC)c3)c2n2ccccc12 [IQ 30, ethyl 6-(3,4-dimethoxyphenyl)indolizino[3,2-c]quinoline-12-carboxylate]
- solvent-dependent (environment-sensitive) tendency of the emission: solvatochromic effect

SMILES: C#Cc1c2c3ccccc3nc(-c3ccc(OC)cc3)c2n2ccccc12 [IQ 55, 12-ethynyl-6-(4-methoxyphenyl)indolizino[3,2-c]quinoline]
- solvent-dependent (environment-sensitive) tendency of the emission: hardly showed an environment-sensitive optical characteristic

SMILES: COc1ccc(-c2nc3ccccc3c3cc4cc(C#N)ccn4c23)cc1 [IQ 67, 6-(4-methoxyphenyl)indolizino[3,2-c]quinoline-10-carbonitrile]
- fluorescence (intensity, in words): further high fluorescence intensity in an aqueous solution

SMILES: COc1ccc(-c2nc3ccccc3c3cc4c5ccccc5ccn4c23)cc1 [IQ 77, 6-(4-methoxyphenyl)benzo[7,8]indolizino[3,2-c]quinoline]
- fluorescence (intensity, in words): very high fluorescence intensity at a blue wavelength in EtOH and DMSO

SMILES: CCc1nc2ccccc2c2cc3c4ccccc4ccn3c12 [IQ 79, 6-ethylbenzo[7,8]indolizino[3,2-c]quinoline]
- fluorescence (intensity, in words): very high fluorescence intensity at a blue wavelength in EtOH and DMSO

SMILES: Nc1ccc(-c2nc3ccccc3c3cc4ccccn4c23)cc1 [IQ-B1, 4-(indolizino[3,2-c]quinolin-6-yl)aniline]
- solvent-dependent (environment-sensitive) tendency of the emission: high solvent-dependent (i.e., environment-sensitive) tendency

SMILES: Oc1ccc(-c2nc3ccccc3c3cc4ccccn4c23)cc1 [IQ-B2, 4-(indolizino[3,2-c]quinolin-6-yl)phenol]
- solvent-dependent (environment-sensitive) tendency of the emission: high solvent-dependent (i.e., environment-sensitive) tendency

SMILES: C(=C\c1nc2ccccc2c2cc3ccccn3c12)/c1ccccc1 [IQ-B4, (E)-6-styrylindolizino[3,2-c]quinoline]
- λex(nm) (Table 7): 415 nm

SMILES: COc1ccc(-c2nc3ccccc3c3cc4cc(C=O)ccn4c23)cc1 [IQ-B11, 6-(4-methoxyphenyl)indolizino[3,2-c]quinoline-10-carbaldehyde]
- λex(nm) (Table 7): 427 nm
- maximum wavelength of fluorescence (Tris buffer (pH 7.5)): 531 nm

SMILES: COc1ccc(/C=C/c2nc3ccccc3c3cc4ccccn4c23)cc1 [IQ-B12, (E)-6-(4-methoxystyryl)indolizino[3,2-c]quinoline]
- Abs maximum λ for UV: 344 nm
- Stokes shift: ≥ 180 nm

SMILES: COc1ccc(-c2nc3ccccc3c3cc4cc(/C=C/n5ccnc5)ccn4c23)cc1 [IQ-B20, (E)-10-(2-(1H-imidazol-1-yl)vinyl)-6-(4-methoxyphenyl)indolizino[3,2-c]quinoline]
- fluorescence (intensity, in words): high fluorescence in other solvents as well as an aqueous solution

The next lines start with the values.

- λex(nm) (Table 7): 422 nm
SMILES: CN(/N=C/c1nc2ccccc2c2cc3ccccn3c12)c1ccccc1 [IQ-B16, (E)-6-((2-methyl-2-phenylhydrazineylidene)methyl)indolizino[3,2-c]quinoline]

- fluorescence (intensity, in words): high fluorescence in DMSO
- λex(nm) (Table 7): 434 nm
SMILES: COc1ccc(-c2nc3ccccc3c3cc4cc(-c5ccc(C=O)cc5)ccn4c23)cc1 [IQ-B23, 4-(6-(4-methoxyphenyl)indolizino[3,2-c]quinolin-10-yl)benzaldehyde]

- fluorescence (intensity, in words): high fluorescence in DMSO
- λex(nm) (Table 7): 444 nm
SMILES: COc1ccc(-c2nc3ccccc3c3cc4cc(/C=C/C=O)ccn4c23)cc1 [IQ-B25, (E)-3-(6-(4-methoxyphenyl)indolizino[3,2-c]quinolin-10-yl)acrylaldehyde]

- λex(nm) (Table 7): 427 nm
SMILES: COc1ccc(-c2nc3ccccc3c3cc4cc(-c5ccc(C(=O)Nc6ccccc6)cc5)ccn4c23)cc1 [IQ-B35, 4-(6-(4-methoxyphenyl)indolizino[3,2-c]quinolin-10-yl)-N-phenylbenzamide]

- λex(nm) (Table 7): 422 nm
SMILES: CCN(CC)C(=O)c1ccc(-c2ccn3c(c2)cc2c4ccccc4nc(-c4ccc(OC)cc4)c23)cc1 [IQ-B36, N,N-diethyl-4-(6-(4-methoxyphenyl)indolizino[3,2-c]quinolin-10-yl)benzamide]

- λex(nm) (Table 7): 423 nm
SMILES: COc1ccc(-c2nc3ccccc3c3cc4cc(-c5ccc6ccccc6c5)ccn4c23)cc1 [IQ-B39, 6-(4-methoxyphenyl)-10-(naphthalen-2-yl)indolizino[3,2-c]quinoline]

- λex(nm) (Table 7): 431 nm
SMILES: COc1ccc(-c2nc3ccccc3c3cc4cc(-c5ccc(C#N)cc5)ccn4c23)cc1 [IQ-B43, 4-(6-(4-methoxyphenyl)indolizino[3,2-c]quinolin-10-yl)benzonitrile]

- λex(nm) (Table 7): 436 nm
SMILES: COc1ccc(-c2nc3ccccc3c3cc4cc(/C=C/C#N)ccn4c23)cc1 [IQ-B44, (E)-3-(6-(4-methoxyphenyl)indolizino[3,2-c]quinolin-10-yl)acrylonitrile]

- quantum yield (Φ) (DW, standard Rhodamine 6G): 0.000
- quantum yield (Φ) (EtOH, standard Coumarin 153): 0.000
- Relative fluorescence Emission Intensitynorm: 0.00
SMILES: O=[N+]([O-])c1ccc(-c2nc3ccccc3c3cc4ccccn4c23)cc1 [compound 2]

- Maximum absorption wavelength λmax abs(nm): 400 nm
- quantum yield (Φ) (DW, standard Rhodamine 6G): 0.005
- quantum yield (Φ) (EtOH, standard Coumarin 153): 0.196
- Fluorescence Emission Intensity: 4.7
- Peak emission wavelength λmax em(nm): 532 nm
- Relative fluorescence Emission Intensitynorm: 0.02
SMILES: c1ccc(-c2nc3ccccc3c3cc4ccccn4c23)nc1 [compound 5]

- quantum yield (Φ) (DW, standard Rhodamine 6G): 0.026
- quantum yield (Φ) (EtOH, standard Coumarin 153): 0.756
- Fluorescence Emission Intensity: 60.8
- Peak emission wavelength λmax em(nm): 527.5 nm
- Relative fluorescence Emission Intensitynorm: 0.26
SMILES: COc1cc(OC)cc(-c2nc3ccccc3c3cc4ccccn4c23)c1 [compound 7]

- Maximum absorption wavelength λmax abs(nm): 407 nm
- quantum yield (Φ) (DW, standard Rhodamine 6G): 0.006
- quantum yield (Φ) (EtOH, standard Coumarin 153): 0.111
- Fluorescence Emission Intensity: 7.5
- Peak emission wavelength λmax em(nm): 536 nm
- Relative fluorescence Emission Intensitynorm: 0.03
SMILES: Clc1ccc(-c2nc3ccccc3c3cc4ccccn4c23)s1 [compound 11]

- Maximum absorption wavelength λmax abs(nm): 395 nm
- quantum yield (Φ) (DW, standard Rhodamine 6G): 0.131
- quantum yield (Φ) (EtOH, standard Coumarin 153): 0.623
- Fluorescence Emission Intensity: 11.8
- Peak emission wavelength λmax em(nm): 531.5 nm
- Relative fluorescence Emission Intensitynorm: 0.05
SMILES: Cc1cccn2c1cc1c3ccccc3nc(-c3ccc(Br)cc3)c12 [compound 12]

- quantum yield (Φ) (DW, standard Rhodamine 6G): 0.000
- quantum yield (Φ) (EtOH, standard Coumarin 153): 0.000
- Relative fluorescence Emission Intensitynorm: 0.00
SMILES: Cc1cccn2c1cc1c3ccccc3nc(-c3ccc([N+](=O)[O-])cc3)c12 [compound 13]

- quantum yield (Φ) (DW, standard Rhodamine 6G): 0.024
- quantum yield (Φ) (EtOH, standard Coumarin 153): 0.654
- Fluorescence Emission Intensity: 9.4
- Peak emission wavelength λmax em(nm): 535.5 nm
- Relative fluorescence Emission Intensitynorm: 0.04
SMILES: Cc1ccc(-c2nc3ccccc3c3cc4c(C)cccn4c23)cc1 [compound 15]

- quantum yield (Φ) (DW, standard Rhodamine 6G): 0.014
- quantum yield (Φ) (EtOH, standard Coumarin 153): 0.672
- Fluorescence Emission Intensity: 11.7
- Peak emission wavelength λmax em(nm): 535 nm
- Relative fluorescence Emission Intensitynorm: 0.05
SMILES: COc1cc(OC)cc(-c2nc3ccccc3c3cc4c(C)cccn4c23)c1 [compound 16]

- quantum yield (Φ) (DW, standard Rhodamine 6G): 0.367
- quantum yield (Φ) (EtOH, standard Coumarin 153): 0.468
- Fluorescence Emission Intensity: 143.5
- Peak emission wavelength λmax em(nm): 493 nm
- Relative fluorescence Emission Intensitynorm: 0.62
SMILES: COC(=O)c1c2c3ccccc3nc(-c3cccc4ccccc34)c2n2ccccc12 [compound 20]
